Results taken from patent US10632119B2, “Fused bicyclic 2,4-diaminopyrimidine derivative as a dual ALK and FAK inhibitor” (priority 2012, dated 2020).
pIC50, pKi: −log10 of the molar value. Values after ≈ are worked out from the molar mass of the structure shown. Read-outs that look alike come from different tables or passages of the source.

Key:
ALK [1] = target: T1, ALK (Homo sapiens, UniProt Q9UM73); test: ALK enzymatic assay; assay type: biochemical
ALK [2] = target: T1, ALK; test: ALK cellular assay; assay type: cell-based
Target sequence in this assay (Q9UM73 with tags, fused parts or gaps): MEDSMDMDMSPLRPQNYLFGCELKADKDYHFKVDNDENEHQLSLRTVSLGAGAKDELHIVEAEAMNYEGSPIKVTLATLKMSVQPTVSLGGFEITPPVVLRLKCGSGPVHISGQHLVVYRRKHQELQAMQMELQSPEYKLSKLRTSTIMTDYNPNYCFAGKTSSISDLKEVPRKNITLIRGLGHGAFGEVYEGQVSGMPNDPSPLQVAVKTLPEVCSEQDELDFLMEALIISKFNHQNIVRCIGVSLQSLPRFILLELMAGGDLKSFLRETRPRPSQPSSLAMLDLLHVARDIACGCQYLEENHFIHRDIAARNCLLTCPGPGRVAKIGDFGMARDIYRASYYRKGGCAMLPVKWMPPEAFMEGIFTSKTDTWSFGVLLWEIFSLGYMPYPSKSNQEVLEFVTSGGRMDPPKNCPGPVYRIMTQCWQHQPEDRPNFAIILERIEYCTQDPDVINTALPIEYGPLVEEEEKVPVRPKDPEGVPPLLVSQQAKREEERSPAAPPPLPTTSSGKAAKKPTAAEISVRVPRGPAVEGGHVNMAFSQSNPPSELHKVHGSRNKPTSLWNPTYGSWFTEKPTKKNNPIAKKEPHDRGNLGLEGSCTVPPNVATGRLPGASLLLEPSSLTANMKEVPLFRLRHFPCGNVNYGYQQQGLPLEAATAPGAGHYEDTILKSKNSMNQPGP

FAK [3] = target: T2, FAK (Homo sapiens, UniProt Q05397); test: FAK enzymatic assay; assay type: biochemical
FAK [4] = target: T2, FAK; test: FAK cellular assay; assay type: cell-based
Adrenergic α1B (R) = Adrenergic α1B (R) (Rattus norvegicus, UniProt P15823); test: Receptor selectivity (Cerep); assay type: binding
Adrenergic α1D (H) = Adrenergic α1D (H) (Homo sapiens, UniProt P25100); test: Receptor selectivity (Cerep); assay type: binding
hERG = hERG (Homo sapiens, UniProt Q12809); test: hERG patch clamp; assay type: cell-based
Equilibrium solubility = assay type: physicochemical; conditions: thermodynamic from solid
[5] = In vitro metabolic stability, mouse; assay type: in vitro ADME; conditions: mouse (M); read-out: In vitro metabolic stability t1/2
[6] = In vitro metabolic stability, rat; assay type: in vitro ADME; conditions: rat (R); read-out: In vitro metabolic stability t1/2
[7] = In vitro metabolic stability, monkey; assay type: in vitro ADME; conditions: monkey (Mo); read-out: In vitro metabolic stability t1/2
[8] = In vitro metabolic stability, human; assay type: in vitro ADME; conditions: human (H); read-out: In vitro metabolic stability t1/2
[9] = In vitro metabolic stability, dog; assay type: in vitro ADME; conditions: dog (D); read-out: In vitro metabolic stability t1/2
CYP 1A2 = CYP 1A2 (Homo sapiens, UniProt P05177); test: CYP inhibition; assay type: in vitro ADME
CYP 2C9 = CYP 2C9 (Homo sapiens, UniProt P11712); test: CYP inhibition; assay type: in vitro ADME
CYP 2C19 = CYP 2C19 (Homo sapiens, UniProt P33261); test: CYP inhibition; assay type: in vitro ADME
CYP 2D6 = CYP 2D6 (Homo sapiens, UniProt P10635); test: CYP inhibition; assay type: in vitro ADME
Caco-2 permeability = assay type: in vitro ADME; conditions: human
Protein binding, mouse = assay type: in vitro ADME; conditions: mouse (M)
Protein binding, dog = assay type: in vitro ADME; conditions: dog (D)
Protein binding, human = assay type: in vitro ADME; conditions: human (H)
Rat bioavailability = conditions: in vivo
Mouse bioavailability = assay type: in vivo; conditions: CEP-37440 as amorphous HCl salt
Monkey bioavailability = conditions: in vivo, po
in vivo = test: in vivo
Description: One additional group of 20 animals/sex served as the control and received the vehicle, distilled water. The drug or vehicle was administered to all groups via oral gavage, once a day for 91 consecutive days, at a dose volume of 10 mL/kg/dose. Following the dosing period, five animals/sex/group were maintained for a 4-week recovery period. Additionally, one group of three animals/sex and three groups of nine animals/sex/group served as toxicokinetic (TK) animals and received the vehicle or drug in the same manner and at the same dose levels as the main study groups.
Observations for morbidity, mortality, injury, and the availability of food and water were conducted at least twice daily for all animals. Clinical observations were conducted on main study animals weekly. Body weights were measured and recorded for all animals prior to initiation of dosing (week −1) and weekly during the study. Food consumption was measured and recorded for main study animals weekly. Ophthalmoscopic examinations were conducted on main study animals pretest and prior to the terminal and recovery necropsies. Blood samples for designated clinical pathology evaluations were collected from main study animals at the end of week 4 and at the terminal and recovery necropsies. Urine samples for urinalysis evaluations were collected from main study animals prior to the terminal and recovery necropsies. Blood samples for determination of the plasma concentrations of the drug were collected from designated TK animals at designated time points on day 1, week 4, and week 13. After the final blood collection, the TK animals were euthanized and the carcasses were discarded. At the end of the terminal and recovery periods, necropsy examinations were performed, organ weights were recorded, and selected tissues were microscopically examined.

[10] = Description: Five animals/sex were assigned to each dose group and were given daily oral doses of 0 (vehicle), 20, 40 or 80 mg/kg for up to 91 days. […] Three animals/sex/group were scheduled for termination at the end of the dosing period (Day 92) and two animals/sex/group were assigned to a 6-week non-dosing recovery phase and were terminated on Day 134.
Urine samples for urinalysis only were obtained by bladder puncture during necropsy. Urine samples for urinalysis and urine chemistry analysis were also obtained by drainage from special stainless-steel cage pans in Weeks −1, 1, 4, and 13, and from the remaining animals near the end of the recovery period.
Blood samples were collected for toxicokinetic analysis at various time points on Day 1 and during Weeks 4 and 13. […] At termination, a full necropsy was conducted on all animals, and tissues were collected, preserved, processed, and examined microscopically by a Veterinary Pathologist certified by the American College of Veterinary Pathologists.

[11] = remark: listed apart in the source
Description: The following parameters and end points were evaluated in this study: clinical signs (mortality/moribundity checks, cage side observations and food consumption, and postdose observations), body weights, veterinary physical examinations, lung evaluations, ophthalmology, electrocardiography, blood pressure and heart rate measurements, clinical pathology parameters (hematology, coagulation, clinical chemistry, urinalysis, urine chemistry, and troponin I analysis), toxicokinetic parameters, gross necropsy findings, organ weights, and histopathologic examinations.

IR = IR (Homo sapiens, UniProt P06213); test: biochemical
CYP3A4 = CYP3A4 induction in vitro
[12] = tested on: NCI-H2228 NSCLC tumor xenografts; test: Anti-tumor activity, EML4-ALK positive NCI-H2228 NSCLC xenograft; conditions: for anti-tumor efficacy: 12 days
Description: (§1) Anti-Tumor Activity in EML4-ALK Positive (NCI-H2228 and NCI-H3122) NSCLC Tumor Xenografts in Mice with Oral Dosing
(§2) Generation of EML4-ALK-positive and EML4-ALK-negative NSCLC Subcutaneous Tumor Xenografts in Scid Mice Female Scid/Beige mice (6-8 weeks, Taconic, Hudson. N.Y.) were maintained 5/cage in microisolator units on a standard laboratory diet (Teklad Labchow, Harlan Teklad, Madison, Wis.). Animals were housed under humidity- and temperature controlled conditions and the light/dark cycle was set at 12-hour intervals. Mice were quarantined at least 1 week prior to experimental manipulation. […] The mice were monitored until the tumor xenograft volumes reached 200-500 mm3.
(§3) The length (L) and width (W) of each tumor were measured with vernier calipers and the mouse body weight was determined every two to three days. […] Percent tumor growth inhibition (% TGI) was calculated as follows: (tumor volume of the control group at end of treatment—tumor volume of the treated group at the end of treatment)/tumor volume of the control group at the end of treatment. […] Complete tumor regression (CR) was defined as the tumor volume of the treated group at the end of treatment being less than 5% of the tumor volume of the treated group as the start of treatment. Statistical analyses of tumor volumes and mouse body weights were carried out with the Mann-Whitney Rank Sum Test. Plasma and tumor samples were obtained at 2 hours post final dose at each dose level, and the compound levels in plasma and tumor lysates were measured by LC-MS/MS

[13] = tested on: NCI-H3122 NSCLC tumor xenografts; test: Anti-tumor activity, EML4-ALK positive NCI-H3122 NSCLC xenograft; conditions: for anti-tumor efficacy: 12 days
Description: as §1, §2, §3

T2 sequence (Q05397 whole entry): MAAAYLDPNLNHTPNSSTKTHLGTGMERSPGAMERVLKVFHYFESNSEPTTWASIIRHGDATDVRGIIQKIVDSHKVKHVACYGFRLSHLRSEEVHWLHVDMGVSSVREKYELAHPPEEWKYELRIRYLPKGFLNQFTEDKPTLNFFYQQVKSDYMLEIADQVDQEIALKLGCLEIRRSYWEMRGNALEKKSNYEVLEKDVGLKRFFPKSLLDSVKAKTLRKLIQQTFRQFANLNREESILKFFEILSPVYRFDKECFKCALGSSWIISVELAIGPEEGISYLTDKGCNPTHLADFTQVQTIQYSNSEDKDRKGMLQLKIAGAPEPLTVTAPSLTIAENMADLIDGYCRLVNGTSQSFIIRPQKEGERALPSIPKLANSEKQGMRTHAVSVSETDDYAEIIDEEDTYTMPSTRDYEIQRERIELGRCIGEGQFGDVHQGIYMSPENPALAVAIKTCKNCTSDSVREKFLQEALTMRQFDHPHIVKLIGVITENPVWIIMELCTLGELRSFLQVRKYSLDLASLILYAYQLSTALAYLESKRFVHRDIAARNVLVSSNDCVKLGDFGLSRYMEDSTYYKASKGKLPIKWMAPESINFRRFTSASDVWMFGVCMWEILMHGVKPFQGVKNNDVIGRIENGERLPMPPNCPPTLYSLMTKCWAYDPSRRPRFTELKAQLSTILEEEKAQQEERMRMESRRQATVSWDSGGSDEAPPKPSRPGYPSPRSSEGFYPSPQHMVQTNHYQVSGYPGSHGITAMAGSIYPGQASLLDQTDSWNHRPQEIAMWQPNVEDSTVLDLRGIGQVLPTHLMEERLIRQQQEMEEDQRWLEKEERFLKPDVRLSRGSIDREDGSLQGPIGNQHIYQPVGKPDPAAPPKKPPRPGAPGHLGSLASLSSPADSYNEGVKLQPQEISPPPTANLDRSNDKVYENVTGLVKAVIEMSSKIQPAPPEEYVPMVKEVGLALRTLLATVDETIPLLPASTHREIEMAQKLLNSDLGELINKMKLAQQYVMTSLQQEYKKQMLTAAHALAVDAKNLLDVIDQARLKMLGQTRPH
CYP 2D6, sequence (P10635 whole entry): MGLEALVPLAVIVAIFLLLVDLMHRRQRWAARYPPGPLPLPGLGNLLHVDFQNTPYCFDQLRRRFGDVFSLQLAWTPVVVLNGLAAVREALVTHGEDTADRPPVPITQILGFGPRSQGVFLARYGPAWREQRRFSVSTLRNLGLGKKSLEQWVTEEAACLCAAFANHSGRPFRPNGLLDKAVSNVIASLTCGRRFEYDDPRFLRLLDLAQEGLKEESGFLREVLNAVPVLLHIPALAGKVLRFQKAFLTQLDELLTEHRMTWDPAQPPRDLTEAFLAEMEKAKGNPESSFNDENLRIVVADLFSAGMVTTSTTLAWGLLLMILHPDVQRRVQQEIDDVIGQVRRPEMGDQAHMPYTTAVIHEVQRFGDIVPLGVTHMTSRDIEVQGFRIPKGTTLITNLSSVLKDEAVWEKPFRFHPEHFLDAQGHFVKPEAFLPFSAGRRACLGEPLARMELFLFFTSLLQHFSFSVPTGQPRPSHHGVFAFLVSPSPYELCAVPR
hERG, sequence (Q12809 whole entry): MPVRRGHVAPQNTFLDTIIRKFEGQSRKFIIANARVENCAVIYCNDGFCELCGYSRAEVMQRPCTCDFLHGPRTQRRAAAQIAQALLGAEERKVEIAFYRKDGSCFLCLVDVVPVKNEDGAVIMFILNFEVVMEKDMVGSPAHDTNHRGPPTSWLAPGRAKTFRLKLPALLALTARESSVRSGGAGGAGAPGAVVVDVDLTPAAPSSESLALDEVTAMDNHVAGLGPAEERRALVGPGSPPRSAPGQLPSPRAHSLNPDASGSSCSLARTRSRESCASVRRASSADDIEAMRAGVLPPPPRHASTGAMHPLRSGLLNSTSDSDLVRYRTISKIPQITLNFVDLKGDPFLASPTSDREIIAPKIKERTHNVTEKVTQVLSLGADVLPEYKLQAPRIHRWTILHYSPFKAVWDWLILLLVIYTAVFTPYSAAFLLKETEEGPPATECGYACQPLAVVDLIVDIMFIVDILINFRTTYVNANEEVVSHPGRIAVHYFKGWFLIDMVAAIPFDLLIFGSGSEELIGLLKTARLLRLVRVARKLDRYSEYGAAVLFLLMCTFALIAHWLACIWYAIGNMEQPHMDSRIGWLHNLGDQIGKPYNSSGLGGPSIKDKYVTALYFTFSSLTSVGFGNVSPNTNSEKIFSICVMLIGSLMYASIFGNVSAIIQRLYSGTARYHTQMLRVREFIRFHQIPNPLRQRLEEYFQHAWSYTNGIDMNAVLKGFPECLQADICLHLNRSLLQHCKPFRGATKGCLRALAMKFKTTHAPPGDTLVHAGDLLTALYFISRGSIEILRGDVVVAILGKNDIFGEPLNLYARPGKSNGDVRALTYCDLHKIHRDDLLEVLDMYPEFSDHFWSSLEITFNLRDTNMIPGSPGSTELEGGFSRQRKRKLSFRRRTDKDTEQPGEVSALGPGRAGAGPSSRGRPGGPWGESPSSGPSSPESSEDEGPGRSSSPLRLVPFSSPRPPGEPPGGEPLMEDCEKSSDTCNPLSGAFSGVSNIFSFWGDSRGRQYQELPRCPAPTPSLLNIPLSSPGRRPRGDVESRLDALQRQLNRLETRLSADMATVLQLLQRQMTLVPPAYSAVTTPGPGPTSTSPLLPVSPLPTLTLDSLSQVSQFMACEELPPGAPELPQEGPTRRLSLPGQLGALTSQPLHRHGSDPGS
Adrenergic α1B (R), sequence (P15823 whole entry): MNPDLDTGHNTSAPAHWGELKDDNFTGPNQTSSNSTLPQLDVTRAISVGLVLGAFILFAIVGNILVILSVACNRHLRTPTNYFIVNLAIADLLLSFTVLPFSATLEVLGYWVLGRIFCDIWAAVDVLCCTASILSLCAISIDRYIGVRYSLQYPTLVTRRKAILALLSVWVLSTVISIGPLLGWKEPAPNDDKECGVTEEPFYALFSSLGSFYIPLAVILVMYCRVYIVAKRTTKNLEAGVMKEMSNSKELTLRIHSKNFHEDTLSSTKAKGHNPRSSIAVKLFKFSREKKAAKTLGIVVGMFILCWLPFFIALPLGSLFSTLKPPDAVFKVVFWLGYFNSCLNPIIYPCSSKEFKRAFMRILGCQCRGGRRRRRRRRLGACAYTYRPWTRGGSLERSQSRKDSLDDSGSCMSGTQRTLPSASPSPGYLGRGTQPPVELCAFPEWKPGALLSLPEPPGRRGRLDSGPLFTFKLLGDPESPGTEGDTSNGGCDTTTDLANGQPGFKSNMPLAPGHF
CYP 2C9, sequence (P11712 whole entry): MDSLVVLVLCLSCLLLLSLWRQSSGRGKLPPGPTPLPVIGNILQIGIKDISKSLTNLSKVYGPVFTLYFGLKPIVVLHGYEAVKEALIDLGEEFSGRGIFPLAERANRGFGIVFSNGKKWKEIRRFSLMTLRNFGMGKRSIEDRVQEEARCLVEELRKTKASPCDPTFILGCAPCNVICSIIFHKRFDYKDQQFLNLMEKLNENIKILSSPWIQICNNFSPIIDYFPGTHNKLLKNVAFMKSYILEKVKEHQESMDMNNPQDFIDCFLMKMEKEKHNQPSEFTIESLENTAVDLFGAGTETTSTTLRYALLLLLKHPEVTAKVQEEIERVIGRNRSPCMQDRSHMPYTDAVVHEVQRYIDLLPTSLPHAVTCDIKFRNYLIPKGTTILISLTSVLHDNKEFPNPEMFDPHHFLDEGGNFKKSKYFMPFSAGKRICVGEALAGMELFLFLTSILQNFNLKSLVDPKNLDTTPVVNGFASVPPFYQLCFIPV
CYP 1A2, sequence (P05177 whole entry): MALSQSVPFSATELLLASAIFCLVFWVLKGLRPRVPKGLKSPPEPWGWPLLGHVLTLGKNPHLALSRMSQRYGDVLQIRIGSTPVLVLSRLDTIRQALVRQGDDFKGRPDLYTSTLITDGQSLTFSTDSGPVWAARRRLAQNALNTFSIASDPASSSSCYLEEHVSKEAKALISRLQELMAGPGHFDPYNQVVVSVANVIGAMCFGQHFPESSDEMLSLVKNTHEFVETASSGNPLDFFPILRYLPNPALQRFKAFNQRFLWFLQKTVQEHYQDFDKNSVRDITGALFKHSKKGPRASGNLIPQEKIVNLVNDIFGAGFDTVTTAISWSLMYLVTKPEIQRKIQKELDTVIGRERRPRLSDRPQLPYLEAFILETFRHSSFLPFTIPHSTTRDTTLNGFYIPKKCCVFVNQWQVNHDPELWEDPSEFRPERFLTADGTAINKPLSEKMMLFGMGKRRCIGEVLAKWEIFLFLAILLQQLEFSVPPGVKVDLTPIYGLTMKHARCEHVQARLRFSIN

## COc1c(Nc2ncc(Cl)c(N[C@H]3[C@@H](C(N)=O)[C@@H]4C=C[C@H]3C4)n2)ccc2c1CC[C@@H](N1CCOCC1)CC2 [CEP-28122, (1 S,2S,3R,4R)-3-[5-chloro-2-((S)-1-methoxy-7-morpholin-4-yl-6,7,8,9-tetrahydro-5H-benzocyclohepten-2-ylamino)-pyrimidin-4-ylamino]-bicyclo[2.2.1]hept-5-ene-2-carboxylic acid amide]
ALK [1]
  pIC50: 8.52
ALK [2]; 75% human plasma, read-out: ALK cellular IC50 in 75% human plasma
  pIC50: 6.52
ALK [2]; 75% murine plasma, read-out: ALK cellular IC50 in 75% murine plasma
  pIC50: 6.52
ALK [2]; read-out: ALK cellular IC50
  pIC50: 7.52
FAK [3]
  pIC50: 7.53
FAK [4]
  pIC50: 6.03
Adrenergic α1B (R)
  pKi: 5.66
Adrenergic α1D (H)
  pKi: 5.96
hERG
  pIC50: < 5.00
Equilibrium solubility; pH 2, simulated gastric fluid, read-out: Equilibrium solubility at pH 2
  solubility thermodynamic: > 3000 µg/mL
Equilibrium solubility; pH 7.4, aqueous buffer, read-out: Equilibrium solubility at pH 7.4
  solubility thermodynamic: 13 µg/mL (≈ 24.1 µM)
[5]
  half-life: 13.2 min
[6]
  half-life: 6.7 min
[7]
  half-life: < 5 min
[8]
  half-life: 10.3 min
[9]
  half-life: 19.9 min
CYP 1A2
  pIC50: < 4.52
CYP 2C9
  pIC50: 5.89
CYP 2C19
  pIC50: 5.17
CYP 2D6
  pIC50: 4.76
Caco-2 permeability
  Papp: 12.6 ×10⁻⁶ cm/s
Protein binding, mouse
  Protein binding: 95 % bound
Protein binding, dog
  Protein binding: 96 % bound
Protein binding, human
  Protein binding: 99.2 % bound
Rat bioavailability
  Rat bioavailability: 25%
Mouse bioavailability; CD-1 mouse
  Mouse bioavailability: 51%
Mouse bioavailability; Scid mouse
  Mouse bioavailability: 71%
Monkey bioavailability; 10 mg/kg
  bioavailability: 16%
Monkey bioavailability; 30 mg/kg
  bioavailability: 37%
In vivo; 30, 75, 150 mg/kg/day oral, 91 days
  drug-related deaths: no drug-related deaths
In vivo; both, Sprague-Dawley, rat, in vivo, po, 91 days
  dosages with adverse histopathological effects in the kidney persisting through 4-week recovery: ≥ 75 mg/kg/day
In vivo; both, rat, in vivo, po
  NOAEL at 91 days: 30 mg/kg/day
[10]; 80 mg/kg, Days 9 and/or 10
  animals with seizures: 2 animals
[10]; 20, 40, 80/60 mg/kg
  lung gross and histologic findings, early death animals: pulmonary edema was identified in all dose groups
[10]; 20, 40, 80/60 mg/kg daily, 91 days
  morbidity and mortality: morbidity and mortality in two animals dosed with 80/60 mg/kg and likely two additional animals
[10]; 80/60 mg/kg, from Day 28, returned to baseline by end of recovery
  hematology changes: decrease in lymphocytes
[10]; 80/60 mg/kg, returned to baseline by end of recovery
  liver enzymes in surviving animals: increased alanine aminotransferase (ALT) and aspartate aminotransferase (AST)
[11]; 3, 10, 20, 40 mg/kg/day oral, 4 weeks
  morbidity or mortality: did not result in any morbidity or mortality
[11]; both, cynomolgus monkey, in vivo
  dose levels with vacuolated cells in the lungs still present after 4-week recovery: ≥ 20 mg/kg/day
[11]; both, cynomolgus monkey, in vivo, po, 4 weeks
  dose levels with histological effects in the lung (vacuolated cells, increased lung weight): ≥ 10 mg/kg/day
IR
  pIC50: 6.00
CYP3A4; @ 0.3 μM
  CYP3A4 induction in vitro: 0.95 fold
CYP3A4; @ 3.0 μM
  CYP3A4 induction in vitro: 1.3 fold

## CNC(=O)c1ccccc1Nc1nc(Nc2ccc3c(c2OC)CCCC(N2CCN(CCO)CC2)C3)ncc1Cl.Cl (centres unmarked) [CEP-37440 (HCl salt), 2-(5-Chloro-2-{6-[4-(2-hydroxy-ethyl)-piperazin-1-yl]-1-methoxy-6,7,8,9-tetrahydro-5H-benzocyclohepten-2-ylamino}-pyrimidin-4-ylamino)-N-methyl-benzamide hydrochloride]
[12]; 30 mg/kg bid po
  anti-tumor efficacy: tumor regressions
[12]; 30 mg/kg, qd, po
  anti-tumor efficacy: tumor regressions
[12]; 55 mg/kg qd po
  anti-tumor efficacy: tumor regressions
[12]; 12 days treatment
  tolerability, body weight: well tolerated with no overt toxicity or compound-related weight loss
[13]; 30 mg/kg bid po
  anti-tumor efficacy: tumor stasis and partial regressions
[13]; 55 mg/kg qd po
  anti-tumor efficacy: tumor stasis and partial regressions
[13]; 12 days treatment
  tolerability, body weight: well tolerated with no overt toxicity or compound-related weight loss (FIGS. 14 and 15), except at 30 mg/kg, bid dose
